Laboratory results: patent US20240294551A1 (AMGEN INC., priority 2022, published 2024)
Where two headings read alike, the source gives them in different places.

Key:
[1] = tested on: Phosphorylation of ERK1/2 in AsPC-1 cells; assay: Phospho-ERK1/2 MSD Assay; format: cell-based, human; details: Homo sapiens, ASPC1, 2 h
How it was run: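 Read-out: MSD electrochemiluminescent detection of phosphorylated ERK1/2 in whole-cell lysates, fitted to a 4-parameter logistic curve for IC50. Prior to lysis, AsPC-1 cells (25,000 per well) received a 2 h compound dose-response at 37 °C.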

[2] = tested on: AsPC-1 cells; assay: AsPC-1 CTG Assay (CellTiter-Glo cell viability); format: cell-based, human; details: Homo sapiens, ASPC1, 72 h, first value of the cell, read-out: G12D/C/V Cell Proliferation CTG (72 h) AsPC-1
How it was run: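 Human pancreatic AsPC-1 or colon SW620 cells in RPMI 1640 with 10% FBS, seeded overnight, then exposed to serially diluted compound for 72 h at 37 °C. CellTiter-Glo luminescence normalized to DMSO control; IC50 from a 4-parameter logistic model.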

[3] = tested on: MIA PaCa-2 cells; assay: MIA PaCa-2 CTG Assay (CellTiter-Glo cell viability); format: cell-based, human; details: Homo sapiens, second value of the cell
Description: MIA PaCa-2 CTG Assay Protocol
MIA PaCa-2 (human pancreatic carcinoma; ATCC CRL-1420) cells were cultured in RPMI 1640 medium containing 10% fetal bovine serum and 1× penicillin/streptomycin/L-glutamine. Cells were seeded in 384-well plates at a density of 1.67E+04 cells/mL and incubated at 37° C., 5% CO2, overnight. Serially-diluted compound or DMSO was added to the cells, and plates were incubated at 37° C., 5% CO2 for 72 h. Cell viability was measured using a CellTiter-Glo® Luminescent Cell Viability Assay kit (Promega) according to the manufacturer's protocol. The luminescence signal of treated samples was normalized to DMSO control, and data were analyzed using a 4-parameter logistic model to calculate IC50 values.

[4] = biological target: His-tagged KRAS G12D protein (Homo sapiens (Human), UniProt P01116, G12D); assay: KRAS G12D TR-FRET Assay; format: binding
His-tagged KRAS G12D protein, sequence (P01116 other isoform, or with tags, fused parts or gaps G12D): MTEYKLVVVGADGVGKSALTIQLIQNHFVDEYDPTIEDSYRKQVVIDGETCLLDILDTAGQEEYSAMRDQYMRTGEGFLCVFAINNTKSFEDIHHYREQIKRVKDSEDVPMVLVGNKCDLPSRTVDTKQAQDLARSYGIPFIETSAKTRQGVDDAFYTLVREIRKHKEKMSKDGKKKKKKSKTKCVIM
How it was run: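 His-tagged KRAS G12D (diluted to 20 nM in pH 7.4 HEPES buffer with 10 mM MgCl2 and 10 μM GDP) was preincubated with titrated compound for 30 min at room temperature. Biotinylated KRPep-2d peptide (diluted to 20 nM) was then added for 1 h, and displacement was monitored by TR-FRET.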

[5] = biological target: GDP-bound KRAS protein (aa 1-169), containing both G12D and C118A amino acid substitutions (Homo sapiens (Human), UniProt P01116, C118A/G12D); assay: KRAS G12D Coupled Nucleotide Exchange Assay; format: biochemical
GDP-bound KRAS protein (aa 1-169), containing both G12D and C118A amino acid substitutions, sequence (P01116 other isoform, or with tags, fused parts or gaps G12D/C118A): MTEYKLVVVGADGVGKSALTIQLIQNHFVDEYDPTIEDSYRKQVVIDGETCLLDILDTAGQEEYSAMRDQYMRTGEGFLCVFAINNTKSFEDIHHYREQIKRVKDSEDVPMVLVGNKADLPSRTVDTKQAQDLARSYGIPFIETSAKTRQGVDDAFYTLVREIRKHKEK

[6] = read-out: 2 h p-ERK (AsPC-1 cells), IC50
[7] = Mia PaCa-2, 72 h, read-out: G12D/C/V Cell Proliferation CTG (72 h) Mia PaCa-2
[8] = read-out: KRAS G12D Binding IC50
[9] = read-out: KRAS G12D Coupled Exchange IC50
[10] = read-out: 2 h p-ERK (AsPC-1 cells)
[11] = MIA PaCa-2 cells (G12C), 72 h, read-out: G12D/C/V Cell Proliferation CTG (72 h) MIA PaCa-2
[12] = TR-FRET, read-out: KRAS G12D Binding
[13] = 2 hours compound pre-incubation, read-out: KRAS G12D Coupled Exchange

Row | Compound | IC50 [1, 6] [nM] | IC50 ([2]; AsPC-1, 72 h) [nM] | IC50 [3, 7] [nM] | IC50 [4, 8] [nM] | IC50 [5, 9] [nM] | IC50 [1, 10] [nM] | IC50 ([2]; AsPC-1 cells (G12D), 72 h) [nM] | IC50 [3, 11] [nM] | IC50 [4, 12] [nM] | IC50 [5, 13] [nM]
1 | CN1CCC[C@H]1COc1nc2c3cnc(c(F)c3n1)-c1c(c(Cl)cc3[nH]ncc13)CCCOCC(=O)N1CC[C@@H]3CCN2C[C@@H]31 [Example 267, (29S,33R)-18-chloro-34-fluoro-4-(((2S)-1-methyl-2-pyrrolidinyl)methoxy)-23-oxa-1,3,5,9,14,15,26-heptaazaheptacyclo[24.5.2.1~6,10~.0~2,7~.0~11,19~.0~12,16~.0~29,33~]tetratriaconta-2,4,6(34),7,9,11,13,16,18-nonaen-25-one] | 33.5 | 80 | 121 | 4 | 2 | – | – | – | – | –
2 | O=C1OCCc2c(Cl)cc3[nH]ncc3c2-c2ncc3c(nc(OC[C@@]45CCCN4C[C@H](F)C5)nc3c2F)N2CCO[C@@H](CO1)C2 [Example 217] | 23 | 455 | 49 | 4 | 2 | – | – | – | – | –
3 | CN1CCC[C@H]1COc1nc2c3cnc(c(F)c3n1)-c1c(c(Cl)cc3[nH]ncc13)CCc1cnc(o1)[C@@H](O)[C@@H]1CCCN2C1 [Example 394, (17S,18R)-9-chloro-31-fluoro-25-(((2S)-1-methylpyrrolidin-2-yl)methoxy)-33-oxa-5,6,15,22,24,26,30-heptaazaheptacyclo[25.3.1.1~13,16~.1~18,22~.0~2,10~.0~3,7~.0~23,28~]tritriaconta-1(31),2,4,7,9,13,15,23,25,27,29-undecaen-17-ol] | – | – | – | – | – | 3 | 58 | 10 | 5 | 2
4 | O=C1OCCCc2c(Cl)cc3[nH]ncc3c2-c2ncc3c(nc(OC[C@H]4CC[C@@H]5COCCN54)nc3c2F)N2CCOC[C@H](C2)O1 [Example 185, (26S)-18-chloro-32-fluoro-4-((6R,8aR)-hexahydro-1H-pyrrolo[2,1-c][1,4]oxazin-6-ylmethoxy)-23,25,28-trioxa-1,3,5,9,14,15-hexaazahexacyclo[24.4.1.1~6,10~.0~2,7~.0~11,19~.0~12,16~]dotriaconta-2,4,6,8,10(32),11,13,16,18-nonaen-24-one] | 12 | 38 | 33 | 6 | 5 | – | – | – | – | –
5 | C[C@@]12CCCN(C1)c1nc(OC[C@@]34CCCN3C[C@H](F)C4)nc3c(F)c(ncc13)-c1cc(O)cc3cccc(c13)CCCC(=O)N2 [Example 3, (15R)-31-Fluoro-8-(((2R,7aS)-2-fluorotetrahydro-1H-pyrrolo[1,2-a]pyrrol-7a(5H)-yl)methoxy)-27-hydroxy-15-methyl-3,7,9,11,16-pentaazahexacyclo[19.7.1.1˜2,6˜.1˜11,15˜.0˜5,10˜.0˜25,29˜]hentriaconta-1(28),2(31),3,5,7,9,21,23,25(29),26-decaen-17-one bis(2,2,2-trifluoroacetate)] | 23 | 285 | 75 | 1 | 0.1 | – | – | – | – | –
6 | O=C1CCCCc2c(Cl)cc3[nH]ncc3c2-c2ncc3c(nc(OC[C@@]45CCCN4C[C@H](F)C5)nc3c2F)N2CCC[C@@H](C1)C2 [Example 372] | – | – | – | – | – | 4.4 | 17 | 20 | 3 | 2
7 | Fc1c2ncc3c(nc(OC[C@@]45CCCN4C[C@H](F)C5)nc13)N1CCC[C@H](C1)c1cnn(n1)CCCc1c(Cl)cc3[nH]ncc3c1-2 [Example 259] | 25.3 | 215 | 126 | 4 | 3 | – | – | – | – | –
8 | Cc1cc2[nH]ncc2c2c1C/C=C\COC[C@@H]1CCCN(C1)c1nc(OC[C@@]34CCCN3C[C@H](F)C4)nc3c(F)c-2ncc13 [Example 131] | 41 | 370 | 230 | 6 | 3 | – | – | – | – | –
9 | CN1C[C@H](F)C[C@H]1COc1nc2c3cnc(c(F)c3n1)-c1cc(O)cc3ccc(F)c(c13)CCCC(=O)N[C@]1(C)CCCN2C1 [Example 5, (15R)-22,31-Difluoro-8-(((2S,4R)-4-fluoro-1-methyl-2-pyrrolidinyl)methoxy)-27-hydroxy-15-methyl-3,7,9,11,16-pentaazahexacyclo[19.7.1.1˜2,6˜.1˜11,15˜.0˜5,10˜.0˜25,29˜]hentriaconta-1(28),2(31),3,5,7,9,21,23,25(29),26-decaen-17-one bis(2,2,2-trifluoroacetate)] | 23 | 471 | 62 | 1 | 1 | – | – | – | – | –
10 | Cc1cc2[nH]ncc2c2c1CCOC(=O)O[C@H]1C[C@@]3(CCCN(C3)c3nc(OC[C@@H]4C[C@@H](F)CN4C)nc4c(F)c-2ncc34)C1 [Example 321, (1S,3R)-32-fluoro-24-(((2S,4R)-4-fluoro-1-methyl-2-pyrrolidinyl)methoxy)-10-methyl-4,6-dioxa-13,14,19,23,25,27-hexaazaheptacyclo[25.3.1.1~1,3~.1~18,22~.0~9,17~.0~12,16~.0~21,26~]tritriaconta-9,11,14,16,18(32),19,21,23,25-nonaen-5-one] | 25 | 186 | 162 | 5 | 2 | – | – | – | – | –

The next lines start with the values.

Row | IC50 [1, 6] [nM] | IC50 ([2]; AsPC-1, 72 h) [nM] | IC50 [3, 7] [nM] | IC50 [4, 8] [nM] | IC50 [5, 9] [nM] | IC50 [1, 10] [nM] | IC50 ([2]; AsPC-1 cells (G12D), 72 h) [nM] | IC50 [3, 11] [nM] | IC50 [4, 12] [nM] | IC50 [5, 13] [nM] | Compound
11 | 10 | 160 | 60 | 2 | 1 | – | – | – | – | – | Cc1cc2[nH]ncc2c2c1CCOC(=O)OC[C@@H]1CCCN(C1)c1nc(OC[C@@]34CCCN3C[C@H](F)C4)nc3c(F)c-2ncc13 [Example 126, (17R)-30-Fluoro-24-(((2R,7aS)-2-fluorotetrahydro-1H-pyrrolo[1,2-a]pyrrol-7a(5H)-yl)methoxy)-9-methyl-13,15-dioxa-5,6,21,23,25,29-hexaazahexacyclo[24.3.1.1˜17,21˜.0˜2,10˜.0˜3,7˜.0˜22,27˜]hentriaconta-1(30),2,4,7,9,22,24,26,28-nonaen-14-one bis(2,2,2-trifluoroacetate)]
12 | 9.4 | 287 | 52 | 3 | 2 | – | – | – | – | – | O=C1OCCc2c(Cl)cc3[nH]ncc3c2-c2ncc3c(nc(OC[C@@]45CCCN4C[C@H](F)C5)nc3c2F)N2CCCCC(CO1)C2 (stereo partly drawn) [Example 222]
13 | 4.9 | 115 | 24 | 3 | 2 | – | – | – | – | – | O=C1OCCCc2c(Cl)cc3[nH]ncc3c2-c2ccc3c(nc(OC[C@@]45CCCN4C[C@H](F)C5)nc3c2F)N2CCOC[C@H](C2)O1 [Example 189, (26S)-18-chloro-32-fluoro-4-(((2R,7aS)-2-fluorotetrahydro-1H-pyrrolo[1,2-a]pyrrol-7a(5H)-yl)methoxy)-23,25,28-trioxa-1,3,5,14,15-pentaazahexacyclo[24.4.1.1~6,10~.0~2,7~.0~11,19~.0~12,16~]dotriaconta-2,4,6,8,10(32),11,13,16,18-nonaen-24-one]
14 | 3.1 | 36 | 32 | 4 | 2 | – | – | – | – | – | C[C@@]12CCCCN(C1)c1nc(OC[C@@]34CCCN3C[C@H](F)C4)nc3c(F)c(ncc13)-c1c(c(Cl)cc3[nH]ncc13)CCCOC(=O)N2 [Example 290, (26R)-18-chloro-32-fluoro-4-(((2R,7aS)-2-fluorotetrahydro-1H-pyrrolo[1,2-a]pyrrol-7a(5H)-yl)methoxy)-26-methyl-23-oxa-1,3,5,9,14,15,25-heptaazahexacyclo[24.4.1.1~6,10~.0~2,7~.0~11,19~.0~12,16~]dotriaconta-2,4,6(32),7,9,11,13,16,18-nonaen-24-one]
15 | 1.9 | 22 | 3 | 3 | 1 | – | – | – | – | – | [2H]C([2H])([2H])[C@@]12COCCN(C1)c1nc(OC[C@@]34CCCN3C[C@H](F)C4)nc3c(F)c(ncc13)-c1c(c(Cl)cc3[nH]ncc13)CCCOC(=O)O2 [Example 353, (26S)-18-chloro-32-fluoro-4-(((2R,7aS)-2-fluorotetrahydro-1H-pyrrolo[1,2-a]pyrrol-7a(5H)-yl)methoxy)-26-(~2~H_3_)methyl-23,25,28-trioxa-1,3,5,9,14,15-hexaazahexacyclo[24.4.1.1~6,10~.0~2,7~.0~11,19~.0~12,16~]dotriaconta-2,4,6(32),7,9,11,13,16,18-nonaen-24-one]
